Source: patent US7211561B2, “Method for inducing selective cell death of malignant cells by activation of calcium-activated potassium channels (KCa)” (Cedars-Sinai Medical Center, priority 2001, dated 2007)
Counter-ions that a name gives are not always drawn.

What was measured:
[1] = test system: rat and human malignant cells studied, as well as normal cells; assay: Cell proliferation assay (WST-1, OD 450 nm), all cell lines; format: cell-based; conditions: data not shown
Procedure: (§1) Primary cell lines were prepared from human gliomas (glioblastoma multiforme [GBM] or astrocytoma) or established rat glioma cell lines (RG2, C6 and 9L) were used. Cultured human normal cell lines, brain microvessel endothelial cells (HBMVEC), or fetal astrocytes were used.
(§2) Cells (5×10^4 cells) were cultured in each well of 96-well microtiter culture plates and were allowed to achieve confluency to form a monolayer of cells in each well. For dose response studies cells were incubated with different concentrations (1–100 μg/mL) of NS-1619 or minoxidil sulfate for 4 hours at 37° C. in a CO2 (5%) incubator. Cells washed twice carefully with respective medium, and allowed to incubate overnight at 37° C. under 5% CO2. The following day, cells were incubated with WST-1 reagent (Boehringer Mannheim) at 37° C. in a CO2 (5%) incubator for 60–90 minutes, and optical density at 450 nm was measured with a 96-well plate reader. The magnitude of OD indicated the number of viable cells, greater the OD, higher the number of viable cells, correlated a standard curve of cell numbers.

9L rat glioma cells = assay: Cell proliferation assay (WST-1, OD 450 nm); format: cell-based; conditions: 1–100 μg/mL, 4 hours, dose-dependent (FIG. 1)
Procedure: as §1, §2

C6 rat glioma cells = assay: Cell proliferation assay (WST-1, OD 450 nm); format: cell-based; conditions: 1–100 μg/mL, 4 hours, dose-dependent (FIG. 1)
Procedure: as §1, §2

RG2 rat glioma cells = assay: Cell proliferation assay (WST-1, OD 450 nm); format: cell-based
Procedure: as §1, §2

[2] = test system: human normal brain microvessel endothelial cells (HBMVEC); assay: Cell proliferation assay (WST-1, OD 450 nm); format: cell-based
Procedure: as §1, §2

[3] = test system: human normal fetal astrocytes (HFA); assay: Cell proliferation assay (WST-1, OD 450 nm); format: cell-based
Procedure: as §1, §2

[4] = test system: primary human GBM glioma cell line; assay: Cell proliferation assay (WST-1, OD 450 nm); format: cell-based
Procedure: as §1, §2

[5] = test system: primary human astrocytoma cell line; assay: Cell proliferation assay (WST-1, OD 450 nm); format: cell-based; conditions: 1–100 μg/mL, 4 hours, dose-dependent (FIG. 2)
Procedure: as §1, §2

U87 human glioma cells = assay: In vitro apoptosis assay (Annexin V-FITC/propidium iodide, FACS); format: cell-based; conditions: 50 μg/mL
Procedure: (§3) Human glioma cells (U-87) and HBMVECells were seeded into a 25-mL tissue-culture flask. After 24 h (about 60–70% confluencey), cells were treated with either […] (50 or 100 micrograms/mL) or staurosporine (positive control; 5 μM), a known inducer of apoptosis (Tamaoki, T., et al., Staurosporine, a potent inhibitor of phospholipid/Ca^++ dependent protein kinase, Biochem. Biophys. Res. Commun. 135: 397–402 [1986]; Matsumoto, H., and Sasaki, Y., Staurosporine, a protein kinase C inhibitor interferes with proliferation of arterial smooth muscle cells, Biochem. Biophys. Res. Commun. 158:105–109 [1989]). U-87 cells were returned to the CO2 incubator and incubated overnight. The following day, cells were washed twice with fresh growth medium and cells prepared for FACS analysis as described hereinbelow.
The changes in plasma membrane are one of the earliest events in cell death. In apoptotic cells the membrane phospholipid phosphatidylserine (PS) is translocated from the inner to the outer leaflet of the cell membrane in the early phases of apoptosis. Annexin V is a Ca^2+-dependent, phospholipid-binding protein that binds to PS with high affinity. Consequently, Annexin V (PharMingen) conjugated to a label, such as fluorescein isothiocyanate (FITC) or biotin, serves as a sensitive probe for flow cytometry analysis of cells that are undergoing apoptosis. […] (PharMingen; Vermes, I. et al., A novel assay for apoptosis. Flow cytometric detection of phosphatidylserine expression on early apoptotic cells using fluorescein labelled Annexin V, J. Immunol. Meth. 184:39–51 [1995]). Concurrently, propidium iodide is typically used as a standard flow cytometric viability probe, because the intact cell membranes of viable cells exclude propidium iodide, whereas the cell membranes of dead and damaged cells are permeable to propidium iodide. Cells that stain positive for Annexin V and negative for propidium iodide are undergoing apoptosis; cells that stain positive for both Annexin V and propidium iodide are either at the end stage of apoptosis, are undergoing necrosis, or are already dead; and cells that stain negative for both Annexin V-biotin and propidium iodide are alive and not undergoing measurable apoptosis. Briefly, the cells were washed twice with cold PBS and then resuspended in 1× binding buffer (10 mM HEPES/NaOH, pH 7.4, 140 mM NaCl, 2.5 mM CaCl2; 4° C.) at a concentration of about 1×10^6 cells/mL. A 100-μL aliquot of cell suspension was transferred to 5-mL culture tubes, and 2.5 μL of Annexin V-FITC and 2.5-μL of propidium iodide (PharMingen) were added to each tube. The cell suspensions were gently mixed and incubated for 15 min at room temperature in the dark, after which 400 μL of binding buffer was added to each tube of cells. […]

malignant 9L cells = assay: as above; format: cell-based, rat; conditions: 50 μg/mL (FIG. 6E)
Source text: (§4) The changes in plasma membrane are one of the earliest events in cell death. In apoptotic cells the membrane phospholipid phosphatidylserine (PS) is translocated from the inner to the outer leaflet of the cell membrane in the early phases of apoptosis. Annexin V is a Ca^2+-dependent, phospholipid-binding protein that binds to PS with high affinity. Consequently, Annexin V (PharMingen) conjugated to a label, such as fluorescein isothiocyanate (FITC) or biotin, serves as a sensitive probe for flow cytometry analysis of cells that are undergoing apoptosis. […] (PharMingen; Vermes, I. et al., A novel assay for apoptosis. Flow cytometric detection of phosphatidylserine expression on early apoptotic cells using fluorescein labelled Annexin V, J. Immunol. Meth. 184:39–51 [1995]). Concurrently, propidium iodide is typically used as a standard flow cytometric viability probe, because the intact cell membranes of viable cells exclude propidium iodide, whereas the cell membranes of dead and damaged cells are permeable to propidium iodide. Cells that stain positive for Annexin V and negative for propidium iodide are undergoing apoptosis; cells that stain positive for both Annexin V and propidium iodide are either at the end stage of apoptosis, are undergoing necrosis, or are already dead; and cells that stain negative for both Annexin V-biotin and propidium iodide are alive and not undergoing measurable apoptosis. Briefly, the cells were washed twice with cold PBS and then resuspended in 1× binding buffer (10 mM HEPES/NaOH, pH 7.4, 140 mM NaCl, 2.5 mM CaCl2; 4° C.) at a concentration of about 1×10^6 cells/mL. A 100-μL aliquot of cell suspension was transferred to 5-mL culture tubes, and 2.5 μL of Annexin V-FITC and 2.5-μL of propidium iodide (PharMingen) were added to each tube. The cell suspensions were gently mixed and incubated for 15 min at room temperature in the dark, after which 400 μL of binding buffer was added to each tube of cells. The cells were then washed once with 1×binding buffer. Analysis by flow cytometry was then conducted immediately, and no later than within one hour. The resulting analytic FACS graphs were typically divided into four quadrants wherein the upper right (UR) quadrant represented the number of necrotic cells; the lower left (LL) quadrant represented the number of viable cells; the lower right (LR) quadrant represented the number of apoptotic cells; and the upper left (UL) represented cells of an intermediate category, which generally represents cell debris and DNA fragments. The percentage of gated events in each quadrant was used to determine the total percentage of apoptotic and necrotic cells in each cell suspension.

malignant C6 cells = assay: as above; format: cell-based, rat; conditions: 50 μg/mL (FIG. 6C)
Source text: as §4

malignant RG2 cells = assay: as above; format: cell-based, rat; conditions: 50 μg/mL (FIG. 6A)
Source text: as §4

primary human GBM cells = assay: as above; format: cell-based; conditions: 50 μg/mL (FIG. 7A)
Source text: The changes in plasma membrane are one of the earliest events in cell death. In apoptotic cells the membrane phospholipid phosphatidylserine (PS) is translocated from the inner to the outer leaflet of the cell membrane in the early phases of apoptosis. Annexin V is a Ca^2+-dependent, phospholipid-binding protein that binds to PS with high affinity. Consequently, Annexin V (PharMingen) conjugated to a label, such as fluorescein isothiocyanate (FITC) or biotin, serves as a sensitive probe for flow cytometry analysis of cells that are undergoing apoptosis. […] (PharMingen; Vermes, I. et al., A novel assay for apoptosis. Flow cytometric detection of phosphatidylserine expression on early apoptotic cells using fluorescein labelled Annexin V, J. Immunol. Meth. 184:39–51 [1995]). Concurrently, propidium iodide is typically used as a standard flow cytometric viability probe, because the intact cell membranes of viable cells exclude propidium iodide, whereas the cell membranes of dead and damaged cells are permeable to propidium iodide. […]

non-malignant HBMVEC = assay: as above; format: cell-based, human; conditions: 50 μg/mL (FIG. 7C)
Procedure: as §3
The changes in plasma membrane are one of the earliest events in cell death. In apoptotic cells the membrane phospholipid phosphatidylserine (PS) is translocated from the inner to the outer leaflet of the cell membrane in the early phases of apoptosis. Annexin V is a Ca^2+-dependent, phospholipid-binding protein that binds to PS with high affinity. Consequently, Annexin V (PharMingen) conjugated to a label, such as fluorescein isothiocyanate (FITC) or biotin, serves as a sensitive probe for flow cytometry analysis of cells that are undergoing apoptosis. […]

[6] = test system: implanted RG2 glioma tumor in Wistar rats; assay: In vivo apoptosis, intracarotid infusion, implanted tumor tissue (FACS); design: species or system rat
Source text: as §4
A rat tumor model, which consisted of intracranially implanted RG2 cells (rat glioma cell line) in Wistar rats, was employed to investigate whether any of several potassium channel activators induce selective apoptosis of tumor cells in vivo.
The techniques for RG2 cell propagation and maintenance in tissue culture have been described (Sugita, M. and Black, K. L., Cyclic GMP-specific phosphodiesterase inhibition and intracarotid bradykinin infusion enhances permeability into brain tumors, Cancer Res. 58(5):914–20 [1998]; Inamura et al. [1994]; Nakano, S. et al., Increased brain tumor microvessel permeability after intracarotid bradykinin infusion is mediated by nitric oxide, Cancer Res. 56(17):4027–31 [1996]). Briefly, RG2 cells derived from a rat glioma are kept frozen until use, then are thawed and maintained in a monolayer culture in F12 medium with 10% calf serum.
The Wistar rats (approximately 140–160 g body weight) were anesthetized with intra-peritoneal ketamine (50 mg/kg), and glial cells (1×10^5) were implanted into the right hemisphere, but not the contralateral hemisphere, by intracerebral injection suspended in 5 μL F12 medium (1–2% methylcellulose) by a Hamilton syringe. The implantation coordinates were 3-mm lateral to the bregma and 4.5 mm deep to the dural surface. […]

[7] = test system: PTK activity in RG2 cell lysate; assay: Protein tyrosine kinase (PTK) assay; format: biochemical, rat; conditions: 1–50 μM (FIG. 10)
Procedure: A PTK assay kit (The Oncogene Research Products, Boston, Mass.) was used to determine the presence and relative amounts of protein kinase activity in tissue cytosols and cell extracts. Briefly, 1×10^4 RG2 cells seeded in a 50-mL culture flask, and allowed to achieve confluency to form a monolayer at 37° C. in a CO2 incubator.
Briefly, RG2 cells were harvested after trypsinization, and cells were pelleted by centrifugation. Cells were resuspended with extraction buffer (20 mM Tris, pH 7.4, 50 mM NaCl, 1 mM EDTA, 1 mM EGTA, 0.2 mM PMSF, 1 μg/mL pepstatin, 0.5 μg/mL leupetin, 0.2 mM Na3VO4, 5 mM mercaptoethanol, 0.1% Triton X-100), and cells were lysed using a cell homogenizer. After centrifugation, supernatant was separated from the pellet for PTK assay. The supernatant was treated with superoxide dismutase. Pervanadate (100 mM) was used in the PTK assay to inhibit […] activity, and protein concentration was determined by Lowry's method using a Bio-Rad protein assay kit. […]
Assay for PTK activity in RG2 cell-lysates was then performed according to the protocol supplied by the PTK assay kit's manufacturer. After adding the stop solution, absorbance measured in each well at 450 nm using a Spectramax Plus (Molecular Devices, Sunnyvale, Calif.).

Solubility in water = format: physicochemical
Source text: The skilled practitioner is cautious in regulating the final concentration of solvent in the infusion solution to avoid solvent-related toxicity. For example, a final ethanol concentration in an infusion solution up to 5–10% (v/v) is tolerated by most mammalian subjects with negligible toxicity.

[8] = RG2 tumor, 50 μg/kg body mass, two consecutive daily doses, intracarotid (FIG. 8C)
[9] = RG2 tumor, 100 μg/kg body mass, three consecutive daily bolus doses (FIG. 9C)
[10] = RG2 tumor, 100 μg/kg body mass/day for two days, another rat (FIG. 8G)
[11] = RG2 tumor, 100 μg/kg body mass/day for two days, one rat (FIG. 8E)

Compound: Nc1cc(N2CCCCC2)nc(N)[n+]1OS(=O)(=O)[O-] [minoxidil sulfate]
- sensitivity (cell proliferation) [1]: insensitive

Compound: O=c1[nH]c2cc(C(F)(F)F)ccc2n1-c1cc(C(F)(F)F)ccc1O [NS-1619, 1,3-dihydro-1-[2-hydroxy-5-(trifluoromethyl)phenyl]-5-(trifluoromethyl)-2H-benzimidazol-2-one]
- cell proliferation (9L rat glioma cells): significantly blocks cell proliferation
- cell proliferation (C6 rat glioma cells): significantly blocks cell proliferation
- cell death (RG2 rat glioma cells; 50 μg/mL (FIG. 3)): 70%
- cell proliferation (RG2 rat glioma cells; 1–100 μg/mL, 4 hours, dose-dependent (FIG. 1)): significantly blocks cell proliferation
- sensitivity (cell death) ([2]; HBMVEC, 50 μg/mL (FIG. 4)): insensitive
- cell proliferation ([2]; normal HBMVEC, 1–100 μg/mL, 4 hours (FIG. 2)): without affecting
- sensitivity (cell death) ([3]; HFA, 50 μg/mL (FIG. 4)): insensitive
- cell proliferation ([3]; normal HFA, 1–100 μg/mL, 4 hours (FIG. 2)): without affecting
- cell death ([4]; 50 μg/mL (FIG. 4)): 90%
- cell proliferation ([4]; 1–100 μg/mL, 4 hours, dose-dependent (FIG. 2)): significantly blocked cell proliferation
- cell proliferation [5]: significantly blocked cell proliferation
- apoptotic cells (U87 human glioma cells): 21%
- necrotic cells (U87 human glioma cells): 14%
- apoptotic cells (malignant 9L cells): 42%
- necrotic cells (malignant 9L cells): 32%
- apoptotic cells (malignant C6 cells): 25%
- necrotic cells (malignant C6 cells): 35%
- apoptosis (malignant RG2 cells): 29%
- necrosis (malignant RG2 cells): 29%
- apoptosis (primary human GBM cells): 24%
- necrosis (primary human GBM cells): 49%
- apoptosis (non-malignant HBMVEC): 4%
- induction of necrosis (non-malignant HBMVEC): did not significantly induce
- apoptotic cells [6, 8]: 28%
- necrotic cells [6, 8]: 24%
- apoptosis [6, 9]: 55%
- necrosis [6, 9]: 9%
- apoptosis [6, 10]: 34%
- necrosis [6, 10]: 9%
- apoptosis [6, 11]: 44%
- necrosis [6, 11]: 15%
- cell death in tumor tissue ([6]; infusion for two or three consecutive days at up to 100 μg/kg body mass): inducing a selective cell death in tumor tissue
- PTK activity [7]: did not significantly affect PTK activity
- solubility in water (Solubility in water): not easily dissolved in water
